In patent publication US5043450A, “8-alkoxyquinolonecarboxylic acid and salts thereof” (priority 1986, dated 1991):
Converted amounts (≈) assume the structure as drawn.

Columns and labels:
Type in all cases: cell-based
Bacilus subtilis PCI 219 = assay: Antibacterial spectra, MIC; details: Bacillus subtilis, PCI219
E. coli ATCC 10536 = assay: Antibacterial spectra, MIC; details: Escherichia coli, ATCC10536
[1] = system: Klebsiella pneumoniae KY(GN)6445; assay: Antibacterial spectra, MIC
P. mirabilis IID 994 = assay: Antibacterial spectra, MIC; details: Proteus mirabilis, IID994
P. cepacia GIFU 518 = assay: Antibacterial spectra, MIC; details: Burkholderia cepacia, GIFU518
E. coli ML 4707 = assay: Antibacterial spectra, MIC; details: Escherichia coli, ML4707; 10^6 cells/ml; Gram -
Procedure: (§1) The antibacterial test was carried out according to the method designated by Japan Society of Chemotherapy.

[2] = system: Streptococcus pyogenes (S-8); assay: Antibacterial spectra, MIC; details: 10^6 cells/ml, Gram +
Procedure: as §1

E. faecalis IID 682 = assay: Antibacterial spectra, MIC; details: Enterococcus faecalis, IID682; 10^6 cells/ml; Gram +
Procedure: as §1

[3] = system: Proteus vulgaris IFO 3167; assay: Antibacterial spectra, MIC; details: IFO3167, 10^6 cells/ml, Gram -
Procedure: as §1

Shigella sonnei IID 969 = assay: Antibacterial spectra, MIC; details: IID969, 10^6 cells/ml, Gram -
Procedure: as §1

K. pneumoniae 1-220S = assay: Antibacterial spectra, MIC; details: Klebsiella pneumoniae, 1220S
[4] = system: Salmonella enteritidis IID 604; assay: Antibacterial spectra, MIC; details: Salmonella enterica
C. perfringens KYA 13123 = assay: microbe, parasite or virus in culture; details: Clostridium perfringens, KYA13123
S. pneumoniae IID 552 = assay: Antibacterial spectra, MIC; details: Streptococcus pneumoniae, IID552
[5] = system: Enterobacter cloacae IID 977; assay: Antibacterial spectra, MIC; details: IID977
B. fragilis 0558 = assay: Antibacterial spectra, MIC; details: Bacteroides fragilis
[6] = system: Citrobacter freundii IID 976; assay: Antibacterial spectra, MIC; details: IID976
F. varium KYA 8501 = assay: Antibacterial spectra, MIC; details: Fusobacterium varium, KYA8501; 10^6 cells/ml; Gram -; read-out: MIC
[7] = system: Morganella morganii IID 602; assay: Antibacterial spectra, MIC; details: IID602
P. aeruginosa IFO 12689 = assay: Antibacterial spectra, MIC; details: Pseudomonas aeruginosa, IFO12689
S. aureus Smith = assay: Antibacterial spectra, MIC; details: Staphylococcus aureus
[8] = system: Alcaligenes faecalis 0114002; assay: Antibacterial spectra, MIC
[9] = system: Bacteroides fragilis GM 7000; assay: Antibacterial spectra, MIC; details: GM7000
S. pyogenes IID 692 = assay: Antibacterial spectra, MIC; details: Streptococcus pyogenes, IID692
[10] = system: Peptococcus magnus KY 017; assay: Antibacterial spectra, MIC; details: Finegoldia magna, KY017
[11] = system: Pseudomonas aeruginosa V-1; assay: Antibacterial spectra, MIC; details: V1
[12] = system: Fusobacterium mortiferum 4249; assay: Antibacterial spectra, MIC
[13] = system: Propionibacterium acens 11828; assay: Antibacterial spectra, MIC; details: 10^6 cells/ml, Gram +, read-out: MIC
[14] = system: Acinetobacter anitratus IID 876; assay: Antibacterial spectra, MIC; details: Acinetobacter calcoaceticus, IID876
P. aeruginosa IID 1210 = assay: Antibacterial spectra, MIC; details: Pseudomonas aeruginosa, IID1210
[15] = system: B. thetaiotaomicron (0661); assay: Antibacterial spectra, MIC; details: Bacteroides thetaiotaomicron
F. necrophorum S-45 = assay: Antibacterial spectra, MIC; details: Fusobacterium necrophorum, S45
[16] = system: Staphylococcus aureus 209 P; assay: Antibacterial spectra, MIC
B. distasonis 8503 = assay: Antibacterial spectra, MIC; details: Parabacteroides distasonis
S. epidermidis IID 866 = assay: Antibacterial spectra, MIC; details: Staphylococcus epidermidis, IID866
[17] = system: Peptostreptococcus anaerobius KYA 27337; assay: Antibacterial spectra, MIC; details: KYA27337
B. fragilis 25285 = assay: Antibacterial spectra, MIC; details: Bacteroides fragilis
[18] = system: Escherichia coli NIHJ JC-2; assay: Antibacterial spectra, MIC; details: NIHJJC2
[19] = system: Eubacterium lentum GAI 5242; assay: Antibacterial spectra, MIC; details: Eggerthella lenta, GAI5242
[20] = system: S. aureus IID 670 (Terajima); assay: Antibacterial spectra, MIC; details: Staphylococcus aureus, IID670
P. maltophilia GIFU 2491 = assay: Antibacterial spectra, MIC; details: Stenotrophomonas maltophilia, GIFU2491
B. vulgatus KYA 29327 = assay: Antibacterial spectra, MIC; details: Phocaeicola vulgatus, KYA29327
C. ramosum = assay: Antibacterial spectra, MIC; details: Thomasclavelia ramosa
Pst. micros UPI 5464-1 = assay: Antibacterial spectra, MIC; details: Parvimonas micra, UPI54641
[21] = system: Serratia marcescens IID 618; assay: Antibacterial spectra, MIC; details: IID618
[22] = system: Veillonella parvula KYA 10790; assay: Antibacterial spectra, MIC; details: KYA10790
[23] = system: Yersinia enterocolitica IID 981; assay: Antibacterial spectra, MIC; details: IID981
[24] = system: Clostridium difficile I-E; assay: Antibacterial spectra, MIC; details: Clostridioides difficile

Structure (SMILES): COc1c(N2CCC(N)C2)c(F)cc2c(=O)c(C(=O)O)cn(C3CC3)c12 (centres unmarked) [Exp. 4, 7-(3-amino-1-pyrrolidinyl)-1-cyclopropyl-6-fluoro-1,4-dihydro-8-methoxy-4-oxo-3-quinolinecarboxylic acid]
- MIC (Bacilus subtilis PCI 219): 0.025 µg/mL (≈ 0.0692 µM)
- MIC (E. coli ATCC 10536): 0.025 µg/mL (≈ 0.0692 µM)
- MIC [1]: 0.05 µg/mL (≈ 0.138 µM)
- MIC (P. mirabilis IID 994): 0.05 µg/mL (≈ 0.138 µM)
- MIC (P. cepacia GIFU 518): 0.39 µg/mL (≈ 1.08 µM)
- MIC (E. coli ML 4707): 0.025 µg/mL (≈ 0.0692 µM)
- MIC [2]: 0.05 µg/mL
- MIC (E. faecalis IID 682): 0.1 µg/mL
- MIC [3]: 0.025 µg/mL (≈ 0.0692 µM)
- MIC (Shigella sonnei IID 969): 0.025 µg/mL (≈ 0.0692 µM)
- MIC (K. pneumoniae 1-220S): 0.05 µg/mL (≈ 0.138 µM)
- MIC [4]: 0.05 µg/mL (≈ 0.138 µM)
- MIC (C. perfringens KYA 13123): 0.2 µg/mL (≈ 0.553 µM)
- MIC (S. pneumoniae IID 552): 0.1 µg/mL (≈ 0.277 µM)
- MIC [5]: 0.05 µg/mL (≈ 0.138 µM)
- MIC (B. fragilis 0558): 0.1 µg/mL (≈ 0.277 µM)
- MIC [6]: 0.05 µg/mL (≈ 0.138 µM)
- MIC (F. varium KYA 8501): 1.56 µg/mL (≈ 4.32 µM)
- MIC [7]: 0.05 µg/mL (≈ 0.138 µM)
- MIC (P. aeruginosa IFO 12689): 0.39 µg/mL (≈ 1.08 µM)
- MIC (S. aureus Smith): 0.05 µg/mL (≈ 0.138 µM)
- MIC [8]: 0.39 µg/mL (≈ 1.08 µM)
- MIC [9]: 0.2 µg/mL (≈ 0.553 µM)
- MIC (S. pyogenes IID 692): 0.1 µg/mL (≈ 0.277 µM)
- MIC [10]: 0.1 µg/mL (≈ 0.277 µM)
- MIC [11]: 0.39 µg/mL (≈ 1.08 µM)
- MIC [12]: 0.2 µg/mL (≈ 0.553 µM)
- MIC [13]: 1.56 µg/mL (≈ 4.32 µM)
- MIC [14]: 0.05 µg/mL (≈ 0.138 µM)
- MIC (P. aeruginosa IID 1210): 0.39 µg/mL (≈ 1.08 µM)
- MIC [15]: 0.2 µg/mL (≈ 0.553 µM)
- MIC (F. necrophorum S-45): 0.2 µg/mL (≈ 0.553 µM)
- MIC [16]: 0.05 µg/mL (≈ 0.138 µM)
- MIC (B. distasonis 8503): 0.78 µg/mL (≈ 2.16 µM)
- MIC (S. epidermidis IID 866): 0.1 µg/mL (≈ 0.277 µM)
- MIC [17]: 0.2 µg/mL (≈ 0.553 µM)
- MIC (B. fragilis 25285): 0.1 µg/mL (≈ 0.277 µM)
- MIC [18]: 0.0125 µg/mL (≈ 0.0346 µM)
- MIC [19]: 0.1 µg/mL (≈ 0.277 µM)
- MIC [20]: 0.05 µg/mL (≈ 0.138 µM)
- MIC (P. maltophilia GIFU 2491): 0.1 µg/mL (≈ 0.277 µM)
- MIC (B. vulgatus KYA 29327): 0.39 µg/mL (≈ 1.08 µM)
- MIC (C. ramosum): 0.78 µg/mL (≈ 2.16 µM)
- MIC (Pst. micros UPI 5464-1): 0.2 µg/mL (≈ 0.553 µM)
- MIC [21]: 0.05 µg/mL (≈ 0.138 µM)
- MIC [22]: 0.2 µg/mL (≈ 0.553 µM)
- MIC [23]: 0.05 µg/mL (≈ 0.138 µM)
- MIC [24]: 0.39 µg/mL (≈ 1.08 µM)

Structure (SMILES): COc1c(N2C[C@@H](N)[C@@H](C)C2)c(F)cc2c(=O)c(C(=O)O)cn(C3CC3)c12 (relative stereo) [Exp. 5, 7-(cis-3-amino-4-methyl-1-pyrrolidinyl)-1-cyclopropyl-6-fluoro-1,4-dihydro-8-methoxy-4-oxo-3-quinolinecarboxylic acid]
- MIC (Bacilus subtilis PCI 219): 0.0125 µg/mL (≈ 0.0333 µM)
- MIC (E. coli ATCC 10536): 0.0125 µg/mL (≈ 0.0333 µM)
- MIC [1]: 0.025 µg/mL (≈ 0.0666 µM)
- MIC (P. mirabilis IID 994): 0.05 µg/mL (≈ 0.133 µM)
- MIC (P. cepacia GIFU 518): 0.78 µg/mL (≈ 2.08 µM)
- MIC (E. coli ML 4707): 0.025 µg/mL (≈ 0.0666 µM)
- MIC [2]: 0.1 µg/mL
- MIC (E. faecalis IID 682): 0.1 µg/mL
- MIC [3]: 0.025 µg/mL (≈ 0.0666 µM)
- MIC (Shigella sonnei IID 969): 0.025 µg/mL (≈ 0.0666 µM)
- MIC (K. pneumoniae 1-220S): 0.05 µg/mL (≈ 0.133 µM)
- MIC [4]: 0.05 µg/mL (≈ 0.133 µM)
- MIC (S. pneumoniae IID 552): 0.1 µg/mL (≈ 0.266 µM)
- MIC [5]: 0.05 µg/mL (≈ 0.133 µM)
- MIC (B. fragilis 0558): 0.1 µg/mL (≈ 0.266 µM)
- MIC [6]: 0.05 µg/mL (≈ 0.133 µM)
- MIC (F. varium KYA 8501): 1.56 µg/mL (≈ 4.16 µM)
- MIC [7]: 0.05 µg/mL (≈ 0.133 µM)
- MIC (P. aeruginosa IFO 12689): 0.78 µg/mL (≈ 2.08 µM)
- MIC (S. aureus Smith): 0.05 µg/mL (≈ 0.133 µM)
- MIC [8]: 0.2 µg/mL (≈ 0.533 µM)
- MIC [9]: 0.1 µg/mL (≈ 0.266 µM)
- MIC (S. pyogenes IID 692): 0.1 µg/mL (≈ 0.266 µM)
- MIC [10]: 0.1 µg/mL (≈ 0.266 µM)
- MIC [11]: 0.78 µg/mL (≈ 2.08 µM)
- MIC [12]: 0.2 µg/mL (≈ 0.533 µM)
- MIC [13]: 1.56 µg/mL (≈ 4.16 µM)
- MIC [14]: 0.05 µg/mL (≈ 0.133 µM)
- MIC (P. aeruginosa IID 1210): 0.78 µg/mL (≈ 2.08 µM)
- MIC [15]: 0.1 µg/mL (≈ 0.266 µM)
- MIC (F. necrophorum S-45): 0.2 µg/mL (≈ 0.533 µM)
- MIC [16]: 0.025 µg/mL (≈ 0.0666 µM)
- MIC (B. distasonis 8503): 0.39 µg/mL (≈ 1.04 µM)
- MIC (S. epidermidis IID 866): 0.1 µg/mL (≈ 0.266 µM)
- MIC [17]: 0.2 µg/mL (≈ 0.533 µM)
- MIC (B. fragilis 25285): 0.1 µg/mL (≈ 0.266 µM)
- MIC [18]: 0.0125 µg/mL (≈ 0.0333 µM)
- MIC [19]: ≤ 0.05 µg/mL
- MIC [20]: 0.05 µg/mL (≈ 0.133 µM)
- MIC (P. maltophilia GIFU 2491): 0.1 µg/mL (≈ 0.266 µM)
- MIC (B. vulgatus KYA 29327): 0.2 µg/mL (≈ 0.533 µM)
- MIC (C. ramosum): 0.78 µg/mL (≈ 2.08 µM)
- MIC (Pst. micros UPI 5464-1): 0.2 µg/mL (≈ 0.533 µM)
- MIC [21]: 0.05 µg/mL (≈ 0.133 µM)
- MIC [22]: 0.2 µg/mL (≈ 0.533 µM)
- MIC [23]: 0.05 µg/mL (≈ 0.133 µM)
- MIC [24]: 0.39 µg/mL (≈ 1.04 µM)
